The text below walks through data of publication PMC9257522, “Machine Learning for Discovery of New ADORA Modulators” (Frontiers in Pharmacology, 2022).

Several values for one entry are separate records, joined by “and”; a condition that tells them apart may be missing. Equal values may be shown once. Entries after “also recorded” stand apart in the source; their conditions may differ.

The target of one assay is T1, human A2AAR (Homo sapiens, UniProt P29274).
T1 construct: expressed in transfected cells; host or cells: HEK293
T1 sequence (P29274 whole entry): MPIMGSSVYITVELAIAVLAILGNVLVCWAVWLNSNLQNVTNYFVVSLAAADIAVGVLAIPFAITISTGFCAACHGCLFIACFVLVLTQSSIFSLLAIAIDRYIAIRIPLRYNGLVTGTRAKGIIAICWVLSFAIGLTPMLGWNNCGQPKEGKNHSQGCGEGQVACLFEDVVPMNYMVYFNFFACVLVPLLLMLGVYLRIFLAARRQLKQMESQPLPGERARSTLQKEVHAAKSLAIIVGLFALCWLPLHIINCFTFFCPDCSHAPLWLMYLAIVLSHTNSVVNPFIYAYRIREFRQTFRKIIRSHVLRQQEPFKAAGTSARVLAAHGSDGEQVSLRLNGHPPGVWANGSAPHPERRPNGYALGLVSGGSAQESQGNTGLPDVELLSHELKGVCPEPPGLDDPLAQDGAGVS
Description: cAMP assay in AR-expressing HEK293 cells (ALPHAScreen), A2AAR. It counts as cell-based. The method, then: HEK293 cells were grown in 96-well plates in DMEM supplemented with 10% fetal bovine serum, 100 Units/ml penicillin, 100 µg/ml streptomycin, and 2 µmol/ml glutamine. […] For A1AR and A3AR, after incubation with agonists for 20 min, forskolin (10 µM) was added and the mixture incubated for an additional 15 min. The reaction was terminated upon removal of the supernatant and addition of 100 µl Tween-20 (0.3%). Intracellular cAMP levels were measured with an ALPHAScreen cAMP assay kit as instructed by the manufacturer (PerkinElmer).
Background: cAMP levels reflect the balance of adenylyl cyclase and phosphodiesterase activity.

Another assay has as its system T2, A1AR.
T2 construct: host or cells: A1AR-bla U2OS
In words: A1AR-bla U2OS agonist screen (beta-arrestin/TEV, beta-lactamase reporter; Thermo Fisher). It is filed as cell-based. How it is done:
A1AR-bla U2OS cells are thawed and resuspended in Assay Media (Freestyle media) to a concentration of 312,500 cells/ml. 32 μl of cell suspension (10,000 cells) was added to each well of a 384-well TC-Treated assay plate. Cells in Assay Media were incubated for 16–24 h in the plate at 37°C/5% CO2 in a humidified incubator. 4 μl aliquots of a 10X serial dilution of NECA (control agonist starting concentration, 500 nM) or compounds were added to appropriate wells of the plate. 4 μl of Assay Media was added to all wells to bring the final assay volume to 40 μl. The plate was incubated for 5 h at 37°C/5% CO2 in a humidified incubator. 8 μl of 1 μM substrate + Solution D Loading Solution was added to each well and the plate was incubated for 2 h at room temperature. The plate was read on a fluorescence plate reader.
This parental cell line stably expresses a beta‐arrestin/TEV protease fusion protein and the beta‐lactamase reporter gene under the control of a UAS response element. […] We also used a secondary assay PathHunter® β-Arrestin assay, which monitors the activation of A1AR in a homogenous, non-imaging assay format using a technology developed by DiscoverX called Enzyme Fragment Complementation (EFC) with β-galactosidase (β-Gal) as the functional reporter.

Turning to `N#Cc1ccc(Oc2ccc3c(c2)COB3O)cc1` [Crisaborole], the “cAMP, A2AAR activity (stimulation of cAMP)” value on human A2AAR (A2AAR-expressing HEK293 cells) is on record as “Active”. Moreover, the maximal response (Emax) (in general, the maximal effect, on the per cent scale that the assay sets) on human A2AAR (A2AAR-expressing HEK293 cells, reference full agonist = 100% stimulation) worked out at 67%. On human A2AAR (HEK293 cells expressing human A2AAR, absence of antagonist, read-out: EC50, stimulation of cAMP, A2AAR), the EC50 – broadly, the concentration that produces a half-maximal response – is 2.8 µM and 2.78 µM. The “activation of A1AR, A1AR-bla U2OS cells” value in the assay on A1AR was “no activation; also recorded: without activity; also recorded: no agonist activity”.
